Laboratory results: PubChem BioAssay AID328 (DTP/NCI, 2004)
Values joined by “and” are separate entries in the source; they are usually repeats but may differ in a detail not shown here. Identical values can stand only once. Inconclusive results and toxic doses are left out.

Test system: BDF1 mice, P388 leukemia ip, median survival T/C
Assay: NCI In Vivo Anticancer Drug Screen. Data for tumor model P388 Leukemia (intraperitoneal) in B6D2F1 (BDF1) mice
Conditions: endpoint: median survival time, higher = longer survival
How it was run: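 In tumour-bearing mice, survival after compound treatment is set against the vehicle group and given as a quotient.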

[1] = dose: 50.0 mg/kg/injection, schedule: Q01DX009 (ip), vehicle: water
[2] = dose: 100.0 mg/kg/injection, schedule: Q04DX003 (ip), vehicle: saline with Tween-80
[3] = dose: 200.0 mg/kg/injection, schedule: Q04DX003 (ip), vehicle: saline with Tween-80
[4] = dose: 400.0 mg/kg/injection, schedule: Q04DX003 (ip), vehicle: saline with Tween-80
[5] = dose: 100.0 mg/kg/injection, schedule: Q04DX003 (ip), vehicle: Klucel (hydroxypropylcellulose) (HPC)
[6] = dose: 200.0 mg/kg/injection, schedule: Q04DX003 (ip), vehicle: Klucel (hydroxypropylcellulose) (HPC)
[7] = dose: 400.0 mg/kg/injection, schedule: Q04DX003 (ip), vehicle: Klucel (hydroxypropylcellulose) (HPC)
[8] = dose: 100.0 mg/kg/injection, schedule: Q01DX001 (ip), vehicle: saline sonified
[9] = dose: 200.0 mg/kg/injection, schedule: Q01DX001 (ip), vehicle: saline sonified
[10] = dose: 50.0 mg/kg/injection, schedule: Q04DX003 (ip), vehicle: saline with Tween-80

Compound: c1cc2n(n1)CCN2
- T/C [1]: 105 % of control
- T/C (dose: 80.0 mg/kg/injection, schedule: Q01DX009 (ip), vehicle: saline): 90 % of control
- T/C (dose: 100.0 mg/kg/injection, schedule: Q01DX009 (ip), vehicle: water): 90 % of control
- T/C [2]: 120 % of control
- T/C (dose: 100.0 mg/kg/injection, schedule: Q04DX003 (ip), vehicle: water): 103 % of control
- T/C (dose: 120.0 mg/kg/injection, schedule: Q01DX009 (ip), vehicle: saline): 107 % of control
- T/C (dose: 180.0 mg/kg/injection, schedule: Q01DX009 (ip), vehicle: saline): 112 % of control
- T/C (dose: 200.0 mg/kg/injection, schedule: Q01DX009 (ip), vehicle: water): 90 % of control
- T/C (dose: 200.0 mg/kg/injection, schedule: Q04DX003 (ip), vehicle: water): 96 % of control
- T/C (dose: 400.0 mg/kg/injection, schedule: Q04DX003 (ip), vehicle: water): 121 % of control

Compound: CCC(O)(CC(=O)O)c1ccccc1 (stereo not drawn)
- T/C [2]: 95 % of control
- T/C [3]: 90 % of control
- T/C [4]: 90 % of control

Compound: O=C[C@@H](CO)O[C@H](C=O)n1cnc2c(=O)[nH]cnc21
- T/C (dose: 108.0 mg/kg/injection, schedule: Q04DX003 (ip), vehicle: water): 170 % of control
- T/C (dose: 180.0 mg/kg/injection, schedule: Q04DX003 (ip), vehicle: water): 179 % of control and 184 % of control
- T/C (dose: 300.0 mg/kg/injection, schedule: Q04DX003 (ip), vehicle: water): 227 % of control and 247 % of control

Compound: Cc1cccc(/C=N\OCc2ccccc2)n1
- T/C [2]: 118 % of control
- T/C (dose: 132.0 mg/kg/injection, schedule: Q04DX003 (ip), vehicle: saline with Tween-80): 104 % of control
- T/C [3]: 100 % of control
- T/C (dose: 300.0 mg/kg/injection, schedule: Q04DX003 (ip), vehicle: saline with Tween-80): 108 % of control
- T/C [4]: 118 % of control

Compound: COC(=O)C1C(c2ccccc2)=NC(c2ccccc2)C1C(=O)OC (stereo not drawn)
- T/C (dose: 100.0 mg/kg/injection, schedule: Q01DX001 (ip), vehicle: saline with Tween-80): 101 % of control
- T/C (dose: 200.0 mg/kg/injection, schedule: Q01DX001 (ip), vehicle: saline with Tween-80): 96 % of control
- T/C (dose: 400.0 mg/kg/injection, schedule: Q01DX001 (ip), vehicle: saline with Tween-80): 109 % of control

Compound: CC(=O)Nc1cc(C)c(C)cc1[N+](=O)[O-]
- T/C (dose: 100.0 mg/kg/injection, schedule: Q01DX009 (ip), vehicle: Klucel (hydroxypropylcellulose) (HPC)): 95 % of control
- T/C [5]: 104 % of control
- T/C (dose: 200.0 mg/kg/injection, schedule: Q01DX009 (ip), vehicle: Klucel (hydroxypropylcellulose) (HPC)): 109 % of control
- T/C [6]: 90 % of control
- T/C (dose: 400.0 mg/kg/injection, schedule: Q01DX009 (ip), vehicle: Klucel (hydroxypropylcellulose) (HPC)): 95 % of control
- T/C [7]: 86 % of control

Compound: O=CN1CCCC1C(=O)O (stereo not drawn)
- T/C (dose: 6.25 mg/kg/injection, schedule: Q01DX009 (ip), vehicle: water): 103 % of control
- T/C (dose: 12.5 mg/kg/injection, schedule: Q01DX009 (ip), vehicle: water): 99 % of control
- T/C (dose: 25.0 mg/kg/injection, schedule: Q01DX009 (ip), vehicle: water): 96 % of control
- T/C [1]: 94 % of control

Compound: COC(=O)CCCc1cc(O)c2c(c1O)C(=O)c1ccccc1C2=O
- T/C [8]: 100 % of control
- T/C [9]: 100 % of control
- T/C (dose: 400.0 mg/kg/injection, schedule: Q01DX001 (ip), vehicle: saline sonified): 95 % of control

Compound: [Ni+2].[SH2+]C([SH2+])=Nc1ccccc1.[SH2+]C([SH2+])=Nc1ccccc1.c1ccc(C[P+](c2ccccc2)(c2ccccc2)c2ccccc2)cc1
- T/C (dose: 0.5 mg/kg/injection, schedule: Q01DX009 (ip), vehicle: saline): 115 % of control
- T/C (dose: 1.0 mg/kg/injection, schedule: Q01DX009 (ip), vehicle: saline): 95 % of control and 120 % of control
- T/C (dose: 1.0 mg/kg/injection, schedule: Q04DX003 (ip), vehicle: other): 95 % of control
- T/C (dose: 3.0 mg/kg/injection, schedule: Q01DX009 (ip), vehicle: saline): 118 % of control and 120 % of control
- T/C (dose: 3.0 mg/kg/injection, schedule: Q04DX003 (ip), vehicle: other): 108 % of control
- T/C (dose: 4.0 mg/kg/injection, schedule: Q01DX009 (ip), vehicle: saline): 100 % of control
- T/C (dose: 6.0 mg/kg/injection, schedule: Q01DX009 (ip), vehicle: saline): 104 % of control and 105 % of control
- T/C (dose: 6.0 mg/kg/injection, schedule: Q04DX003 (ip), vehicle: other): 95 % of control
- T/C (dose: 9.0 mg/kg/injection, schedule: Q01DX009 (ip), vehicle: saline): 110 % of control and 118 % of control
- T/C (dose: 10.0 mg/kg/injection, schedule: Q01DX009 (ip), vehicle: Klucel (hydroxypropylcellulose) (HPC)): 115 % of control

Compound: Cc1ccc(NCc2nc(N)nc(Nc3ccc(C)cc3)n2)cc1
- T/C (dose: 50.0 mg/kg/injection, schedule: Q01DX001 (ip), vehicle: saline sonified): 100 % of control
- T/C [8]: 100 % of control
- T/C [9]: 90 % of control

Compound: CCCCN(CCCC)CCCC#N
- T/C (dose: 25.0 mg/kg/injection, schedule: Q01DX009 (ip), vehicle: saline): 116 % of control
- T/C (dose: 25.0 mg/kg/injection, schedule: Q04DX003 (ip), vehicle: saline): 100 % of control
- T/C (dose: 50.0 mg/kg/injection, schedule: Q01DX009 (ip), vehicle: saline): 116 % of control
- T/C (dose: 50.0 mg/kg/injection, schedule: Q04DX003 (ip), vehicle: saline): 96 % of control
- T/C (dose: 66.0 mg/kg/injection, schedule: Q01DX009 (ip), vehicle: saline with Tween-80): 120 % of control
- T/C (dose: 100.0 mg/kg/injection, schedule: Q04DX003 (ip), vehicle: saline): 103 % of control

Compound: Cc1ccc(CNc2ccc(C)c(Cl)c2)cc1
- T/C (dose: 100.0 mg/kg/injection, schedule: Q01DX009 (ip), vehicle: other): 104 % of control
- T/C (dose: 200.0 mg/kg/injection, schedule: Q01DX009 (ip), vehicle: other): 113 % of control
- T/C (dose: 400.0 mg/kg/injection, schedule: Q01DX009 (ip), vehicle: other): 118 % of control

Compound: O=C(NCCCCOc1ccc([N+](=O)[O-])cc1Cl)c1ccc(S(=O)(=O)F)cc1
- T/C [10]: 103 % of control
- T/C [2]: 96 % of control and 112 % of control
- T/C [3]: 106 % of control
- T/C [4]: 90 % of control and 103 % of control

Compound: CCCCCCCCCCNCCS
- T/C (dose: 8.0 mg/kg/injection, schedule: Q01DX010 (ip), vehicle: carboxymethylcellulose (CMC)): 105 % of control
- T/C (dose: 16.0 mg/kg/injection, schedule: Q01DX010 (ip), vehicle: carboxymethylcellulose (CMC)): 110 % of control
- T/C (dose: 32.0 mg/kg/injection, schedule: Q01DX010 (ip), vehicle: carboxymethylcellulose (CMC)): 105 % of control

Compound: CC(=O)C1CCC=C2C1CC1CC2C1(C)C (stereo not drawn)
- T/C [5]: 100 % of control
- T/C [6]: 109 % of control
- T/C [7]: 104 % of control

Compound: O=[N+]([O-])c1cccc(N2CN(c3ccccc3)NC(c3ccccc3)=N2)c1
- T/C (dose: 12.5 mg/kg/injection, schedule: Q04DX003 (ip), vehicle: saline with Tween-80): 100 % of control
- T/C (dose: 25.0 mg/kg/injection, schedule: Q04DX003 (ip), vehicle: saline with Tween-80): 96 % of control
- T/C [10]: 105 % of control

Compound: CCOC(=O)N1N(C(=O)c2ccccc2)C(=O)CC1(C)C
- T/C (dose: 200.0 mg/kg/injection, schedule: Q01DX001 (ip), vehicle: other): 100 % of control
- T/C (dose: 400.0 mg/kg/injection, schedule: Q01DX001 (ip), vehicle: other): 109 % of control

Compound: Nc1nc(=S)c2[nH]c(N=Nc3ccc(S(=O)(=O)Nc4ccccn4)cc3)nc2[nH]1
- T/C (dose: 12.5 mg/kg/injection, schedule: Q01DX009 (ip), vehicle: Klucel (hydroxypropylcellulose) (HPC)): 108 % of control
- T/C (dose: 25.0 mg/kg/injection, schedule: Q01DX009 (ip), vehicle: Klucel (hydroxypropylcellulose) (HPC)): 91 % of control
- T/C (dose: 50.0 mg/kg/injection, schedule: Q01DX009 (ip), vehicle: Klucel (hydroxypropylcellulose) (HPC)): 90 % of control
- T/C (dose: 50.0 mg/kg/injection, schedule: Q04DX003 (ip), vehicle: Klucel (hydroxypropylcellulose) (HPC)): 87 % of control
- T/C [5]: 116 % of control
- T/C [6]: 104 % of control

Compound: COc1ccc(-c2cnc(C(N)=O)c(=O)[nH]2)cc1
- T/C (dose: 100.0 mg/kg/injection, schedule: Q01DX009 (ip), vehicle: saline with Tween-80): 104 % of control
- T/C (dose: 200.0 mg/kg/injection, schedule: Q01DX009 (ip), vehicle: saline with Tween-80): 108 % of control
- T/C (dose: 400.0 mg/kg/injection, schedule: Q01DX009 (ip), vehicle: saline with Tween-80): 100 % of control
